Experimental data published in patent US20070161592A1, “Method of treating fear” (priority 2005, published 2007).
Entries after “also recorded” stand apart in the source; their conditions may differ.

Tests used:
[1] = test system: NMDAR-mediated currents in the hippocampus; test: NMDAR-mediated EPSCs in hippocampal CA1 neurons; format: cell-based, mouse; conditions: hippocampus
Procedure: Coronal brain slices ([…]) from 6-8-week-old C57BL/6 mice, containing ACC or hippocampus, were prepared using standard methods (Wei et al., 2001). Slices were transferred to a submerged recovery chamber containing oxygenated (95% O2 and 5% CO2) artificial cerebrospinal fluid (ACSF) (in mM: 124 NaCl, 4.4 KCl, 2 CaCl2, 1 MgSO4, 25 NaHCO3, 1 NaH2PO4, 10 glucose) at room temperature for at least 1 h.
Experiments were performed in a recording chamber on the stage of an Axioskop 2FS microscope with infrared DIC optics for visualizing whole-cell patch clamp recordings. EPSCs were recorded from layer II-III neurons using an Axon 200B amplifier (Axon Instruments, CA) and stimulations were delivered using a bipolar tungsten stimulating electrode placed in layer V of the ACC. In hippocampal slices, EPSCs were evoked by stimulating the Schaffer collateral-commissural pathway. EPSCs were induced by repetitive stimulations at 0.02 Hz and neurons were voltage clamped at −70 mV. The recording pipettes (3-5 MΩ) were filled with solution containing (mM) 145 K-gluconate, 5 NaCl, 1 MgCl2, 0.2 EGTA, 10 HEPES, 2 Mg-ATP, and 0.1 Na3-GTP (adjusted to pH 7.2 with KOH). After obtaining stable EPSCs for 10 min, three kinds of LTP induction paradigms were used within 12 min after establishing the whole-cell configuration to prevent wash out effect on LTP induction (Tsvetkov et al., 2002). The first protocol involved paired presynaptic 80 pulses at 2 Hz with postsynaptic depolarization at +30 mV (referred to as pairing training). The second involved paired 3 presynaptic stimuli that caused 3 EPSPs (10 ms ahead) with 3 postsynaptic APs at 30 Hz, paired 15 times every 5 s (named as EPSPs-APs protocol). The third involved theta-burst stimulation (5 trains of burst with 4 pulses at 100 Hz, at 200 ms interval; repeated 4 times at intervals of 10 s; named as TBS). The NMDAR-mediated component of EPSCs was pharmacologically isolated in Mg^2+-free ACSF containing: CNQX (20 μM), glycine (1 μM) and picrotoxin (100 μM). The patch electrodes contained (in mM) 102 cesium gluconate, 5 TEA-chloride, 3.7 NaCl, 11 BAPTA, 0.2 EGTA, 20 HEPES, 2 MgATP, 0.3 NaGTP, and 5 QX-314 chloride (adjusted to pH 7.2 with CsOH). Neurons were voltage clamped at −60 mV and NMDARs-mediated EPSCs were evoked at 0.05 Hz. Picrotoxin (100 μM) was always present to block GABAA receptor-mediated inhibitory synaptic currents. The access resistance was 15-30 MΩ and was monitored throughout the experiment. Data were discarded if access resistance changed by more than 15% during an experiment. Results are expressed as means±SEM. Statistical comparisons were performed using the Student t-test.
One possible mechanism is that NR2B-containing receptors may contribute more to total NMDA currents in ACC synapses than in hippocampal synapses. […] Application of 0.1 μM or 0.4 μM NVP-AAM077 depressed total NMDAR-mediated currents by 59.0±4.3% (n=5) and 63.2±1.7% (n=6) in the ACC respectively (FIG. 5). On the other hand, application of 0.3 μM or 3 μM Ro25-6981 attenuated total NMDAR-mediated currents by 18.0±1.9% (n=5) and 18.1±3.4% (n=7) in the ACC respectively, showing that 0.3 μM Ro25-6981 was sufficient to block the NR2B-mediated currents (FIG. 5). This experiment was repeated in hippocampal CA1 neurons. […] However, unlike in the ACC, application of 0.3 μM Ro25-6981 alone potentiated, rather than blocked, total NMDAR-mediated currents by 51.3±16.4% in the hippocampus (FIG. 5).
The same experiment was repeated in the hippocampus.

male Sprague Dawley rats = test: Rat fear conditioning (contextual and auditory fear memory); format: in vivo
Excerpt: For one site drug infusion, 23-guage guide cannulas were implanted bilaterally into the dorsal hippocampus (CA1 region: 3.2 mm posterior to Bregma, ±1.5˜1.7 mm lateral from the midline, 1.7 mm beneath the surface of the skull). For two sites drug infusion, guide cannulas were implanted bilaterally into the dorsal hippocampus (first injection site: 2.8 mm posterior to Bregma, ±1.5 mm lateral from the midline, 1.7 mm beneath the surface of the skull; second injection site: 3.8 mm posterior to Bregma, ±1.8˜2.2 mm lateral from the midline, 1.3 mm beneath the surface of the skull). The dummy cannulas, cut 0.5 mm longer than guide cannulas, were inserted into the guide cannulas to prevent clogging and reduce the risk of infection. Rats were given at least 5 days to recover before experimentation. A 30-gauge injection cannula that was 1.5 mm lower than the guide was used for intra-hippocampal infusion. 1.0 μl Ro25-6981 (0.1 μg /μl) or saline was delivered bilaterally at the rate of 0.5 μl/min using a pump. After infusion, the cannulas were left in place for an additional 2 min to allow the solution to diffuse away from the cannula tip. Fifteen minutes later, rats were conditioned by one pairing of a tone (2.2 kHz, 96 dB, 30 s) and a foot shock (2.0 mA, 2 s) that terminated at the same time as the tone. […] Rats were returned to the conditioning chamber and allowed to stay in the chamber for 3-min without footshock.
However, the effects of local hippocampal injections of NR2B antagonists on fear conditioning have not been examined. Ro25-6981 (5 μg in 0.5 μl) was bilaterally injected into dorsal hippocampi (FIG. 8B) before conditional training. […] The NR2B specific antagonist was also injected into the ACC and hippocampus of rats and contextual and auditory fear memory was then measured. […] Hippocampal injections of a higher dose of Ro25-6981 (5 μg in 1 μl per side) bilaterally or multiple injections of the same dose (2 per side) were then tested to determine their affect on either contextual or auditory fear memory.

[2] = hippocampal injections 5 μg in 1 μl per side, single or multiple (2 per side)

In the case of `C[C@@H](CN1CCC(Cc2ccccc2)CC1)[C@@H](O)c1ccc(O)cc1` [Ro25-6981], the “further reduction of total NMDAR-mediated currents” value ([1]; 0.3 μM Ro25-6981 added to the same neuron after 0.4 μM NVP-AAM077) is reported as 6.6±1.4%, the “potentiation of total NMDAR-mediated currents” value ([1]; 0.3 μM alone) is reported as 51.3±16.4% and the “effect on total NMDAR-mediated currents” value ([1]; bath application, FIG. 5) is reported as “enhanced”. The contextual memory (male Sprague Dawley rats; 0.1 μg in 1 μl bilaterally into dorsal hippocampus before fear conditioning) was “did not impair contextual fear memory; also recorded: did not produce a significant impairment”, the auditory fear memory (male Sprague Dawley rats; [2]) was “Neither single nor multiple injections of Ro25-6981 produced a significant impairment” and the contextual fear memory (male Sprague Dawley rats; [2]) was “Neither single nor multiple injections of Ro25-6981 produced a significant impairment”. For the same compound, the contextual fear memory (male Sprague Dawley rats; in 1 μl per side bilaterally into the ACC before conditioning, tested one day after training) was “impaired contextual fear memory; also recorded: significant reduction in contextual fear memory”, the auditory fear memory (male Sprague Dawley rats; injected in the ACC) was “did not affect auditory fear memory” and the auditory fear memory (male Sprague Dawley rats; injected in the hippocampus) was “did not affect auditory fear memory”.
